US12133908B2, “Personal care composition comprising taurine, arginine, glycine” (Colgate-Palmolive Company, priority 2015, dated 2024)

How the values were obtained:
HaCaT cells = assay: in vitro migration assay (scratch gap closure) for barrier repair; assay type: cell-based, human; conditions: 24 hours incubation, taurine 0.0005% alone or with L-arginine 0.0001% and glycine 0.0001% (Example 1)
Description: To determine barrier repair function of taurine combined with L-arginine and glycine, in vitro experiments are conducted using HaCaT cells. HaCaT cells are spontaneously transformed aneuploid immortal keratinocyte cell line from adult human skin and are grown until 100% confluent. After that, each well is scratched with 1000 μl tip to create the gap and washed with 1 ml of PBS twice to eliminate dead floating cells. Following that, cells are treated with 1 ml of culture media for control (untreated), Taurine (0.0005% by weight), and amino acid complex of taurine (0.0005% by weight) combined with L-arginine (0.0001% by weight) and glycine (0.0001% by weight). Then, initial measurements of gap distance are taken using microscope (OLYMPUS IX71). Next, the treated cells are incubated for 24 hours and measurements are taken again.
The migration assay measures cell migration in order to evaluate the barrier repair.

[1] = test system: 3D EpiDerm skin models (SIT 200 skin irritation model); assay: in vitro skin irritation assay, IL-1α release by ELISA; assay type: cell-based
Description: To measure skin irritation, in vitro experiments are conducted using 3D EpiDerm skin models (SIT 200 skin irritation model, MatTek Corporation, Ashland, MA 01721). The irritation assay measures IL-la protein released by the cells to the media to evaluate the level of skin irritation and inflammation. In vitro skin samples are treated topically with 30 μl of test compounds (taurine (1% by weight) or taurine-L-arginine-glycine complex (1% by weight) of 2:1:1 (a mixture of 0.5% taurine, 0.25% L-arginine and 0.25% glycine, by weight) for 1 hour in tissue culture incubator. To induce irritation, cells are co-treated with 0.05% SDS and the test compounds. Following the incubation, skin samples are washed with PBS and placed in a culture medium and incubated for 24 hours. Cell culture media are collected for IL-la release assay. IL-la release is analyzed by ELISA assay kit (R&D Systems, Minneapolis, MN 55413). The greater IL-la release, the greater the irritation potential. […] Samples 1-6 are evaluated in the in vitro irritation assay as described above in Example 2.

`NCCS(=O)(=O)O` [taurine, 2-aminoethanesulfonic acid] was tested, and the “Cell migration in 24hr (% of control)” value (HaCaT cells) was 66 % of control, the “IL-1α release (% of control)” value ([1]; 1% test compound co-treated with 0.05% SDS (Example 4)) was 114 % of control and the “IL-1α release (% of control)” value ([1]; 30 μl of 1% test compound co-treated with 0.05% SDS for 1 hour, then 24 hours in medium (Example 2)) was 70 % of control.
For `CCCCCCCCCCCCOS(=O)(=O)[O-].[Na+]` [SDS, sodium dodecyl sulfate], the “IL-1α release (% of control)” value ([1]; 0.05% SDS alone (Example 2)) was 120 % of control, the “IL-1α release (% of control)” value ([1]; 0.05% SDS alone (Example 4)) was 140 % of control and the “increase of IL-1α release” value ([1]; 0.05% SDS alone vs untreated (Example 2)) was 20%.
